Test results taken from PMC6748986, “Potent modulation of the CepR quorum sensing receptor and virulence in a Burkholderia cepacia complex member using non-native lactone ligands” (Scientific Reports, 2019).
Several values for one entry are separate records, joined by “and”; a condition that tells them apart may be missing. Equal entries are not always repeated.

Experiments:
CepR [1] = target: T1, CepR (Burkholderia cenocepacia, UniProt B4EMD0); test: CepR agonism in E. coli β-galactosidase reporter (Ec-reporter) JLD271 [pJN105-cepR + pSC11-cepI]; type: cell-based, B. cenocepacia; settings: for Maximal Activation (%): activity for 100 μM C8-AHL set to 100%, error ±10%
T1 sequence (B4EMD0 1-239): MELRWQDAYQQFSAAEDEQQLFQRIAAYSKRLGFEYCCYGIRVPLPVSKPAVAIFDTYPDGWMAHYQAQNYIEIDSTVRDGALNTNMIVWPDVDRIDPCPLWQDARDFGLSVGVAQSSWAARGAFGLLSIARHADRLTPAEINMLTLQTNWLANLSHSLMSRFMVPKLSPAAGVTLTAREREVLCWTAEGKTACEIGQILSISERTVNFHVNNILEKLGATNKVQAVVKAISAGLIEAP
Source text: (§1) We began our study by screening the AHL library for CepR modulators using an E. coli-based two plasmid reporter system (Ec-reporter)[38]–[40]. Certain members of the Bcc harbor additional QS systems that are either AHL-based (e.g., BviI/BviR in B. vietnamiensis)[41] or diffusible signal factor (DSF)-based (B. cenocepacia)[42], and at least one member of the Bcc has multiple receptors that respond to C8-AHL (e.g., CepR and CepR2 in B. cenocepacia)[43]. Thus, we reasoned that using a CepR reporter in a heterologous background could simplify our initial analyses. We modified our previously reported E. coli-based two plasmid β-galactosidase reporter system to develop a CepR Ec-reporter (see Methods). The first plasmid, pJN105-cepR, contains CepR from B. cenocepacia under the control of the L-arabinose inducible pBAD promoter. A second plasmid contains a transcriptional fusion of lacZ to the cepI promoter region. The two plasmids were co-transformed into a QS mutant E. coli strain (JLD271 ∆sdiA) that lacks its LuxR-type receptor, SdiA. Using this reporter system, if an exogenously -added compound is able to interact with CepR, this will affect the protein’s interaction with the cepI promoter region and alter β-galactosidase production. Enzyme production, and thereby CepR activity, is then measurable via the degradation of a colorimetric substrate for β-galactosidase. Using this new Ec-reporter, we observed robust activity of CepR in response to its native ligand C8-AHL, with an EC50 of 5 nM (Table 1).
We used the CepR Ec-reporter to perform a primary agonism screen at a single compound concentration (100 μM, or its solubility limit, indicated in Table S1). Thirty-one compounds displaying ≥70% agonistic activity in CepR (relative to C8-AHL) were identified and subjected to dose-response analyses using the Ec-reporter (Table I; see Table S2 for complete screening data and Fig. S3 for dose-response curves).
(§2) E. coli β-galactosidase reporter assays (derived from ref.[63]) and reagents used to obtain primary screening and dose-response data were performed as previously described[22],[60],[64], with the following modifications: E. coli JLD271 (∆sdiA) was co-transformed iteratively with pSC11-cepI and pJN105-cepR via electroporation. A single colony was used to start overnight cultures in LB medium + ampicillin (100 μg/mL) + gentamicin (15 μg/mL). A 1:10 dilution of overnight culture was grown in fresh medium to OD600 = 0.25. A sterile solution of L-arabinose in water (27 mM final concentration) was added to induce protein expression, after which cells were plated in 96-well plates containing varying concentrations of compound (200 μL total volume).
(§3) Cells were grown for 4 h, OD600 was read, 50 μL aliquots from each well were permeabilized in 200 μL Z Buffer, and then 150 μL of this mixture used to measure the cleavage of 25 μL of 4 mg/mL CPRG in phosphate buffered saline (PBS) at 37 °C until positive control wells developed a deep red color (~30 min). For all agonism assays, synthetic compound (100 μM) was screened alongside and compared to the native ligand, C8-AHL (100 μM). For all primary and dose-response antagonism assays, the concentration of native ligand utilized was 10 nM (approximately equal to twice its EC50 value). […] At least 3 separate trials were performed using unique cultures on separate days.

CepR [2] = target: T1, CepR; test: CepR antagonism in E. coli β-galactosidase reporter (Ec-reporter), competition against C8-AHL; type: cell-based, B. cenocepacia; settings: for Inh% (100-Act%): Table S3, Ec-reporter; for CepR antagonism in words: Ec-reporter
Source text: as §1
To identify antagonists of CepR, we screened the AHL library (at 100 μM) in competition against the native ligand C8-AHL (at approximately twice its EC50 value, 0.01 μM) in the Ec-reporter. […] The active compounds were subjected to dose-response analyses in the Ec-reporter to obtain IC50 values and assess their relative potencies (Table 2; see Table S3 for complete screening data and Fig. S3 for dose-response curves). One general trend that we noted at the outset was the majority of the antagonists had acyl tails of similar or shorter overall length than CepR’s native ligand, C8-AHL. From this set, the strongest antagonists could be divided into two classes: (i) “short alkyl tail” AHLs or analogs thereof, and (ii) phenylacetanoyl HLs (PHLs). The discovery that the latter compounds were CepR antagonists was perhaps not surprising, as we have found substituted PHLs to strongly antagonize the majority of the LuxR-type receptors studied in our laboratory to date[22],[24],[29],[45],[46].
as §2, §3

[3] = Table S2, Ec-reporter, screening conc. 100 μM
[4] = screening conc. 100 μM, against 10 nM C8-AHL
[5] = Ec-reporter, agonism dose-response

O=C(Cc1ccc(-c2ccccc2)cc1)NC1CCCC1 [Compound F20]
Act% (CepR [1]; [3]): 0.5% | Inh% (100-Act%) (CepR [2]; [4]): -10%

Cc1ccc(CC(=O)N[C@H]2CCOC2=O)cc1 [Compound C19]
Act% (CepR [1]; [3]): -1.6% | Inh% (100-Act%) (CepR [2]; [4]): -20%

O=C(COc1ccc(Br)cc1)N[C@H]1CCOC1=O [Compound E21]
Act% (CepR [1]; [3]): 89% | Inh% (100-Act%) (CepR [2]; [4]): -10%

O=C(CC(O)Cc1cccc(I)c1)N[C@H]1CCOC1=O (some centres unmarked) [Compound H15]
Act% (CepR [1]; [3]): 2.6% | Inh% (100-Act%) (CepR [2]; [4]): 18%

O=C(Cc1ccccc1)N[C@H]1CCOC1=O [Control 5, reference compound]
Act% (CepR [1]; Table S2, Ec-reporter, screening conc. 100 μM, listed as Co n tro l 5): 9.8% | Inh% (100-Act%) (CepR [2]; [4]): 11%

O=C(Cc1ccc(C(F)(F)F)cc1)N[C@H]1CCOC1=O [Compound C20]
Act% (CepR [1]; [3]): 0.3% | Inh% (100-Act%) (CepR [2]; [4]): -52%

CCCCCCCCCC(=O)CC(=O)Nc1ccccc1 [3’O-C12-analine, reference compound]
Act% (CepR [1]; [3]): 52% | Inh% (100-Act%) (CepR [2]; [4]): 16%

O=C(CCc1ccccc1)N[C@H]1CCOC1=O [Compound B9]
EC50 fold higher than those for substituted PPHLs (CepR [1]; Ec-reporter): ~ 1000 fold | EC50 (CepR [1]; [5]): 1000 nM | Maximal Activation (%) (CepR [1]; Ec-reporter): 88% | Act% (CepR [1]; [3]): 88% | Inh% (100-Act%) (CepR [2]; [4]): -40%

O=C(CCCc1ccccc1)N[C@H]1CCOC1=O [Control 6, reference compound]
Act% (CepR [1]; [3]): 80% | Inh% (100-Act%) (CepR [2]; [4]): 3.0%

O=C(N[C@H]1CCOC1=O)c1cccc(Br)c1 [Compound Q2]
Act% (CepR [1]; [3]): 4.9% | Inh% (100-Act%) (CepR [2]; [4]): -30%

O=C(COc1ccc(I)cc1)N[C@H]1CCOC1=O [Compound E22]
Act% (CepR [1]; [3]): 92% | Inh% (100-Act%) (CepR [2]; [4]): -30%

O=C(N[C@H]1CCOC1=O)c1ccccc1Br [Compound Q1]
Act% (CepR [1]; [3]): 5.8% | Inh% (100-Act%) (CepR [2]; [4]): -30%

CCCCCCCCCCCCCC(=O)CC(=O)NC1CCOC1=O (centres unmarked) [3’O-C16-AHL, reference compound]
Act% (CepR [1]; [3]): 8.3% | Inh% (100-Act%) (CepR [2]; [4]): -50%

O=C(CCCc1ccccc1)N[C@@H]1CCOC1=O [Compound B3]
Act% (CepR [1]; [3]): -0.4% | Inh% (100-Act%) (CepR [2]; [4]): -30%

COc1cccc(OCC(=O)N[C@H]2CCOC2=O)c1 [Compound E18]
Act% (CepR [1]; [3]): 30% | Inh% (100-Act%) (CepR [2]; [4]): 0.0%

CCCCCCCCCC(=O)CC(=O)Nc1cccc(OC)c1 [Control 13, reference compound]
Act% (CepR [1]; [3]): 2.0% | Inh% (100-Act%) (CepR [2]; [4]): 13%

Nc1ccc(CC(=O)N[C@H]2CCOC2=O)cc1 [Compound C21]
Act% (CepR [1]; [3]): 21% | Inh% (100-Act%) (CepR [2]; [4]): -20%

Cc1cccc(CC(=O)N[C@H]2CCOC2=O)c1 [Compound E1]
Act% (CepR [1]; [3]): 16% | Inh% (100-Act%) (CepR [2]; [4]): 11%

CCCCCC(=O)CC(=O)N[C@@H]1CCOC1=O [D-3’O-C8-AHL]
CepR agonism in words (CepR [1]; Ec-reporter): inactive | EC50 (CepR [1]; [5]): ≥ 27000 nM | Maximal Activation (%) (CepR [1]; Ec-reporter): 85% | Act% (CepR [1]; [3]): 85% | Inh% (100-Act%) (CepR [2]; [4]): -40%

CCCCCCCCCCCCCC(=O)N[C@H]1CCOC1=O [Compound C14-AHL, tetradecanoyl L-homoserine lactone, reference compound]
CepR agonism in words (CepR [1]; Ec-reporter): inactive | Maximal Activation (%) (CepR [1]; Ec-reporter): 49% | Act% (CepR [1]; [3]): 49% | Inh% (100-Act%) (CepR [2]; [4]): -10%

O=C(CCc1c[nH]c2ccccc12)N[C@H]1CCOC1=O [Compound B14]
Act% (CepR [1]; [3]): 96% | Inh% (100-Act%) (CepR [2]; [4]): -40%

O=C(COc1ccc(Cl)cc1)N[C@H]1CCOC1=O [Compound E20]
EC50 (CepR [1]; Table S2, Ec-reporter): 210 nM | Act% (CepR [1]; [3]): 100% | Inh% (100-Act%) (CepR [2]; [4]): -20%

O=C(NCc1cc(Br)cc(Br)c1OC(=O)c1ccccc1[N+](=O)[O-])c1ccccc1Cl [TP-1P, reference compound]
Act% (CepR [1]; [3]): 54% | Inh% (100-Act%) (CepR [2]; [4]): 0.0%

Cc1cccc(OCC(=O)N[C@H]2CCOC2=O)c1 [Compound E16]
Act% (CepR [1]; [3]): 11% | Inh% (100-Act%) (CepR [2]; [4]): 21%

O=C(Cc1cccc([N+](=O)[O-])c1)Nc1ccccc1 [Compound F25]
Act% (CepR [1]; [3]): 3.0% | CepR antagonism in words (CepR [2]): dramatic losses in activity | Inh% (100-Act%) (CepR [2]; [4]): 12%

O=C(Cc1cc(C(F)(F)F)cc(C(F)(F)F)c1)N[C@H]1CCOC1=O [Compound E9]
Act% (CepR [1]; [3]): 2.2% | Inh% (100-Act%) (CepR [2]; [4]): 13%

O=C(N[C@H]1CCOC1=O)c1ccc2c(c1)OCO2 [Compound Q11]
Act% (CepR [1]; [3]): 6.9% | Inh% (100-Act%) (CepR [2]; [4]): 5.0%

O=C(N[C@H]1CCOC1=O)c1ccc(N=Nc2ccccc2)cc1 [Compound D20]
Act% (CepR [1]; Table S2, Ec-reporter, screening conc. 77 μM): 37% | Inh% (100-Act%) (CepR [2]; screening conc. 77 μM): 8.0%

CCCCCOc1ccc(C(=O)N[C@H]2CCOC2=O)cc1 [Compound R5]
Act% (CepR [1]; [3]): 95% | Inh% (100-Act%) (CepR [2]; [4]): -10%

O=C(N[C@H]1CCOC1=O)c1ccc(Oc2ccc(Br)cc2)cc1 [Compound Q10]
Act% (CepR [1]; [3]): 64% | Inh% (100-Act%) (CepR [2]; [4]): -40%

CC(C)(C)OC(=O)NCCCCC(=O)N[C@H]1CCOC1=O [Compound D1]
Act% (CepR [1]; [3]): 16% | Inh% (100-Act%) (CepR [2]; [4]): 11%

CCCCCCCCCC(=O)N[C@H]1CCOC1=O [Compound C10-AHL, decanoyl L-homoserine lactone, reference compound]
EC50 (CepR [1]; [5]): 109 nM and 110 nM | Maximal Activation (%) (CepR [1]; Ec-reporter): 87% | Act% (CepR [1]; [3]): 87% | Inh% (100-Act%) (CepR [2]; [4]): -30%

O=C(Cc1ccc(F)cc1)N[C@H]1CCOC1=O [Compound C2]
Act% (CepR [1]; [3]): 0.1% | CepR antagonism in words (CepR [2]): inactive as antagonists | Inh% (100-Act%) (CepR [2]; [4]): 4.0%

O=C(Cc1c(F)c(F)c(F)c(F)c1F)N[C@H]1CCOC1=O [Compound C16]
Act% (CepR [1]; [3]): 0.1% | Inh% (100-Act%) (CepR [2]; [4]): -30%

CCCCCCCCOc1ccc(C(=O)N[C@H]2CCOC2=O)cc1 [Compound Q9]
Act% (CepR [1]; [3]): 62% | Inh% (100-Act%) (CepR [2]; [4]): -20%
